“And” between values parts separate entries of the source, which are not always exact repeats. Equal values may be shown once. Toxic doses and inconclusive results are not listed.
Test system: BDF1 mice, P388 leukemia ip, median survival T/C
Assay: NCI In Vivo Anticancer Drug Screen. Data for tumor model P388 Leukemia (intraperitoneal) in B6D2F1 (BDF1) mice
Details: endpoint: median survival time, higher = longer survival
Method in brief: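 T/C = treated-group survival ÷ vehicle-control survival; tumour transplanted into mice before dosing.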

[1] = dose: 200.0 mg/kg/injection, schedule: Q01DX009 (ip), vehicle: saline
[2] = dose: 100.0 mg/kg/injection, schedule: Q01DX009 (ip), vehicle: Klucel (hydroxypropylcellulose) (HPC)
[3] = dose: 200.0 mg/kg/injection, schedule: Q01DX009 (ip), vehicle: Klucel (hydroxypropylcellulose) (HPC)
[4] = dose: 6.25 mg/kg/injection, schedule: Q01DX009 (ip), vehicle: saline with Tween-80
[5] = dose: 12.5 mg/kg/injection, schedule: Q01DX009 (ip), vehicle: saline with Tween-80
[6] = dose: 50.0 mg/kg/injection, schedule: Q01DX009 (ip), vehicle: saline with Tween-80
[7] = dose: 100.0 mg/kg/injection, schedule: Q01DX009 (ip), vehicle: saline with Tween-80
[8] = dose: 100.0 mg/kg/injection, schedule: Q04DX003 (ip), vehicle: saline with Tween-80
[9] = dose: 200.0 mg/kg/injection, schedule: Q01DX009 (ip), vehicle: saline with Tween-80
[10] = dose: 200.0 mg/kg/injection, schedule: Q04DX003 (ip), vehicle: saline with Tween-80
[11] = dose: 400.0 mg/kg/injection, schedule: Q04DX003 (ip), vehicle: saline with Tween-80
[12] = dose: 25.0 mg/kg/injection, schedule: Q01DX009 (ip), vehicle: saline with Tween-80
[13] = dose: 75.0 mg/kg/injection, schedule: Q01DX009 (ip), vehicle: saline with Tween-80

COc1cc2cnc3c4cc5c(cc4ccc3c2cc1OC)OCO5
T/C (dose: 20.0 mg/kg/injection, schedule: Q01DX009 (ip), vehicle: saline with Tween-80): 95 % of control | T/C (dose: 40.0 mg/kg/injection, schedule: Q01DX009 (ip), vehicle: saline with Tween-80): 105 % of control | T/C (dose: 80.0 mg/kg/injection, schedule: Q01DX009 (ip), vehicle: saline with Tween-80): 105 % of control | T/C (dose: 120.0 mg/kg/injection, schedule: Q01DX009 (ip), vehicle: saline with Tween-80): 95 % of control | T/C (dose: 240.0 mg/kg/injection, schedule: Q01DX009 (ip), vehicle: saline with Tween-80): 110 % of control

Cn1cnc([N+](=O)[O-])c1Sc1ncnc2nc[nH]c12
T/C (dose: 44.0 mg/kg/injection, schedule: Q04DX003 (ip), vehicle: saline sonified): 110 % of control | T/C (dose: 66.0 mg/kg/injection, schedule: Q04DX003 (ip), vehicle: saline sonified): 120 % of control | T/C (dose: 150.0 mg/kg/injection, schedule: Q04DX003 (ip), vehicle: saline sonified): 175 % of control | T/C [1]: 86 % of control | T/C (dose: 400.0 mg/kg/injection, schedule: Q04DX003 (ip), vehicle: saline sonified): 109 % of control

Cc1ccc(NC(=O)CO)cc1
T/C (dose: 50.0 mg/kg/injection, schedule: Q01DX009 (ip), vehicle: Klucel (hydroxypropylcellulose) (HPC)): 102 % of control | T/C [2]: 97 % of control | T/C [3]: 104 % of control

CCC(CC)c1ccccn1
T/C (dose: 50.0 mg/kg/injection, schedule: Q01DX009 (ip), vehicle: saline): 104 % of control | T/C (dose: 100.0 mg/kg/injection, schedule: Q01DX009 (ip), vehicle: carboxymethylcellulose (CMC)): 99 % of control | T/C (dose: 100.0 mg/kg/injection, schedule: Q01DX009 (ip), vehicle: saline): 105 % of control | T/C (dose: 200.0 mg/kg/injection, schedule: Q01DX009 (ip), vehicle: carboxymethylcellulose (CMC)): 108 % of control | T/C [1]: 113 % of control

NC(=S)/N=C\C(CC(O)C(O)C(O)CO)=N\NC(N)=S (stereo not given)
T/C [4]: 88 % of control and 97 % of control and 100 % of control | T/C [5]: 99 % of control and 100 % of control and 108 % of control | T/C [6]: 97 % of control and 115 % of control

c1ccc(SC23CC4CC(CC(C4)C2)C3)nc1
T/C (dose: 100.0 mg/kg/injection, schedule: Q01DX001 (ip), vehicle: Klucel (hydroxypropylcellulose) (HPC)): 100 % of control | T/C (dose: 200.0 mg/kg/injection, schedule: Q01DX001 (ip), vehicle: Klucel (hydroxypropylcellulose) (HPC)): 90 % of control | T/C (dose: 400.0 mg/kg/injection, schedule: Q01DX001 (ip), vehicle: Klucel (hydroxypropylcellulose) (HPC)): 100 % of control

O=C(/C=N/O)c1ccccc1
T/C (dose: 50.0 mg/kg/injection, schedule: Q04DX003 (ip), vehicle: gum acacia): 100 % of control | T/C (dose: 100.0 mg/kg/injection, schedule: Q04DX003 (ip), vehicle: gum acacia): 96 % of control | T/C (dose: 200.0 mg/kg/injection, schedule: Q04DX003 (ip), vehicle: gum acacia): 96 % of control

CCOC(=O)c1c(N)sc2c1CCN(Cc1ccccc1)C2
T/C [7]: 104 % of control | T/C [8]: 100 % of control | T/C [9]: 95 % of control | T/C [10]: 104 % of control | T/C (dose: 400.0 mg/kg/injection, schedule: Q01DX009 (ip), vehicle: saline with Tween-80): 119 % of control | T/C [11]: 109 % of control

CCOC1=Cc2c(oc3c(C(C)(C)C)cc(OCC)cc23)OC(C(C)(C)C)=C1
T/C (dose: 3.12 mg/kg/injection, schedule: Q01DX009 (ip), vehicle: saline with Tween-80): 112 % of control | T/C [4]: 122 % of control | T/C [5]: 122 % of control | T/C [12]: 100 % of control and 121 % of control | T/C [6]: 101 % of control

CC(=N\[O-])/C(C)=N/O.CC(=N\[O-])/C(C)=N/O.[Cl-].[Cl-].[Rh+3].c1ccncc1
T/C (dose: 75.0 mg/kg/injection, schedule: Q01DX009 (ip), vehicle: water): 110 % of control | T/C (dose: 150.0 mg/kg/injection, schedule: Q01DX009 (ip), vehicle: water): 110 % of control

O=S(=O)(CI)OCCCl
T/C (dose: 50.0 mg/kg/injection, schedule: Q01DX005 (ip), vehicle: Klucel (hydroxypropylcellulose) (HPC)): 93 % of control | T/C (dose: 100.0 mg/kg/injection, schedule: Q01DX005 (ip), vehicle: Klucel (hydroxypropylcellulose) (HPC)): 110 % of control

Cc1n[nH]c(C)c1Br
T/C [13]: 95 % of control | T/C (dose: 150.0 mg/kg/injection, schedule: Q01DX009 (ip), vehicle: saline with Tween-80): 98 % of control | T/C (dose: 300.0 mg/kg/injection, schedule: Q01DX009 (ip), vehicle: saline with Tween-80): 95 % of control

O=C1c2cccc(O)c2C(=O)c2c(OC3OC(CO)C(OC4OC(CO)C(O)C(O)C4O)C(O)C3O)cccc21 (stereo not given)
T/C (dose: 100.0 mg/kg/injection, schedule: Q04DX003 (ip), vehicle: saline): 103 % of control | T/C (dose: 200.0 mg/kg/injection, schedule: Q04DX003 (ip), vehicle: saline): 119 % of control | T/C (dose: 400.0 mg/kg/injection, schedule: Q04DX003 (ip), vehicle: saline): 112 % of control

COc1c(OC)c(OC)c(C(=O)/C=C/c2ccccc2)c(OC)c1OC
T/C [12]: 104 % of control | T/C [6]: 104 % of control | T/C [7]: 99 % of control

CCCCCCCCCC[N+](C)(C)CC(O)C[N+](C)(C)CCCCCCCCCC
T/C (dose: 1.56 mg/kg/injection, schedule: Q01DX009 (ip), vehicle: saline): 91 % of control and 109 % of control | T/C (dose: 3.12 mg/kg/injection, schedule: Q01DX009 (ip), vehicle: saline): 104 % of control | T/C (dose: 3.13 mg/kg/injection, schedule: Q01DX009 (ip), vehicle: saline): 100 % of control and 108 % of control | T/C (dose: 6.25 mg/kg/injection, schedule: Q01DX009 (ip), vehicle: saline): 100 % of control and 109 % of control and 120 % of control | T/C (dose: 12.5 mg/kg/injection, schedule: Q01DX009 (ip), vehicle: saline): 107 % of control and 109 % of control and 111 % of control

CCCN1CCC2(CC1)COCc1ccccc12
T/C (dose: 50.0 mg/kg/injection, schedule: Q04DX002 (ip), vehicle: saline with Tween-80): 98 % of control | T/C (dose: 100.0 mg/kg/injection, schedule: Q04DX002 (ip), vehicle: saline with Tween-80): 91 % of control

C#CCOCC(O)CO (stereo not given)
T/C (dose: 6.25 mg/kg/injection, schedule: Q01DX009 (ip), vehicle: water): 88 % of control | T/C (dose: 12.5 mg/kg/injection, schedule: Q01DX009 (ip), vehicle: water): 106 % of control | T/C (dose: 12.5 mg/kg/injection, schedule: Q04DX003 (ip), vehicle: water): 93 % of control | T/C (dose: 25.0 mg/kg/injection, schedule: Q01DX009 (ip), vehicle: water): 117 % of control | T/C (dose: 25.0 mg/kg/injection, schedule: Q04DX003 (ip), vehicle: water): 111 % of control | T/C (dose: 50.0 mg/kg/injection, schedule: Q01DX009 (ip), vehicle: water): 117 % of control and 123 % of control | T/C (dose: 50.0 mg/kg/injection, schedule: Q04DX003 (ip), vehicle: water): 95 % of control | T/C (dose: 100.0 mg/kg/injection, schedule: Q01DX009 (ip), vehicle: water): 95 % of control and 122 % of control | T/C (dose: 100.0 mg/kg/injection, schedule: Q04DX003 (ip), vehicle: water): 98 % of control | T/C (dose: 200.0 mg/kg/injection, schedule: Q01DX009 (ip), vehicle: water): 110 % of control

CCN(CCO)CC(C)Nc1ccc([N+](=O)[O-])c2sc3ccccc3c(=O)c12 (stereo not given)
T/C (dose: 33.0 mg/kg/injection, schedule: Q01DX009 (ip), vehicle: saline with Tween-80): 195 % of control | T/C [6]: 177 % of control | T/C (dose: 66.0 mg/kg/injection, schedule: Q04DX003 (ip), vehicle: saline with Tween-80): 162 % of control | T/C [13]: 95 % of control | T/C [8]: 191 % of control and 200 % of control | T/C (dose: 150.0 mg/kg/injection, schedule: Q04DX003 (ip), vehicle: saline with Tween-80): 220 % of control | T/C [10]: 113 % of control | T/C [11]: 95 % of control

O=C1c2ccccc2C2CCCC12 (stereo not given)
T/C [6]: 105 % of control | T/C [7]: 120 % of control | T/C [9]: 112 % of control

O=[N+]([O-])c1cc2c3ccccc3ccc2c2ccccc12
T/C [2]: 104 % of control | T/C (dose: 100.0 mg/kg/injection, schedule: Q04DX003 (ip), vehicle: Klucel (hydroxypropylcellulose) (HPC)): 100 % of control | T/C [3]: 100 % of control | T/C (dose: 200.0 mg/kg/injection, schedule: Q04DX003 (ip), vehicle: Klucel (hydroxypropylcellulose) (HPC)): 100 % of control | T/C (dose: 400.0 mg/kg/injection, schedule: Q01DX009 (ip), vehicle: Klucel (hydroxypropylcellulose) (HPC)): 104 % of control | T/C (dose: 400.0 mg/kg/injection, schedule: Q04DX003 (ip), vehicle: Klucel (hydroxypropylcellulose) (HPC)): 100 % of control

Reference: PubChem BioAssay AID328 (DTP/NCI, 2004)
